Test [1] addresses T1, pseudo-kinase domain (JH2, amino-acids 536-812) of human Wild Type JAK2 (Homo sapiens, UniProt O60674, F794H/W659A/W777A).
T1 construct: pseudo-kinase domain (JH2, amino-acids 536-812 with 3 surface mutations W659A, W777A, F794H); purchased BPS Bioscience 79463; host or cells: baculovirus expression system
In words: JAK2 LanthaScreen JH2-WT Binding Assay. To be noted: 1 hour at 25° C. The procedure, abridged: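 Compounds, serially diluted, were mixed with 0.145 nM JH2 domain, 50 nM tracer and 0.25 nM streptavidin-Tb cryptate, then incubated 1 hour at 25° C before LanthaScreen reading. Wells containing 2 mM ATP defined non-specific binding. Four-parameter dose-response curves gave IC50.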
(TR-FRET usually uses a lanthanide donor and a delayed reading to cut background.)

Test [2] addresses T2, catalytic domain (JH1, amino acids 808-1132) of human JAK2 (Homo sapiens, UniProt O60674).
T2 construct: catalytic domain (JH1, amino acids 808-1132) of human JAK2; His (N); purchased BPS Bioscience 40450; host or cells: baculovirus expression system
The test can be described thus: JAK2 HTRF Enzyme Activity Assay. Type of test: biochemical. Particulars: ATP 30 μM, read-out: ENZ 30UMATP. An outline of the steps:
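IC50 values come from a four-parameter fit of HTRF signal (Eu-PY20 antibody/streptavidin-APC, EDTA-quenched). Reaction: 0.015 nM N-His JAK2 catalytic domain (baculovirus), 500 nM biotin-peptide, 30 μM or 1 mM ATP, Tris pH 7.5 buffer, 60 min, 25° C.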

Test [3] deals with T3, catalytic domain (JH1, amino acids 826-1132) of human JAK2 (Homo sapiens, UniProt O60674).
T3 construct: catalytic domain (JH1, amino acids 826-1132) of human JAK2; purchased Carna Biosciences 08-445-20N; host or cells: baculovirus expression system
T3 sequence (O60674 826-1132): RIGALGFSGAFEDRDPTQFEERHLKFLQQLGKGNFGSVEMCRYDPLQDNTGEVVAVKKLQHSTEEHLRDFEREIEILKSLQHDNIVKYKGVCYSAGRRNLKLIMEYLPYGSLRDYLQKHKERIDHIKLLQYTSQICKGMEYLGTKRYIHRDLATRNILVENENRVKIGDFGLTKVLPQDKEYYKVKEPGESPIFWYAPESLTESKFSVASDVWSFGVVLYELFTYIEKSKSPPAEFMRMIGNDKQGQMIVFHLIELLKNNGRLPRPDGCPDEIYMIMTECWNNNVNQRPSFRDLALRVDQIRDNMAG
In words: JAK2 LanthaScreen JH1 Binding Assay. Particulars: 2 hours at 25° C. An outline of the steps: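 Reaction held 1.5 nM biotinylated FLAG-JAK2 JH1, 50 nM tracer and 0.5 nM streptavidin-Tb in pH 7.5 Tris buffer; 2 mM ATP defined nonspecific binding.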

The target of test [4] is T4, pseudo-kinase domain (JH2, amino-acids 536-812) of human V617F mutant JAK2 (Homo sapiens, UniProt O60674, F794H/V617F/W659A/W777A).
T4 construct: pseudo-kinase domain (JH2, amino-acids 536-812 with 3 surface mutations W659A, W777A, F794H); purchased BPS Bioscience 79498; host or cells: baculovirus expression system
T4 sequence (O60674 536-812 V617F/W659A/W777A/F794H): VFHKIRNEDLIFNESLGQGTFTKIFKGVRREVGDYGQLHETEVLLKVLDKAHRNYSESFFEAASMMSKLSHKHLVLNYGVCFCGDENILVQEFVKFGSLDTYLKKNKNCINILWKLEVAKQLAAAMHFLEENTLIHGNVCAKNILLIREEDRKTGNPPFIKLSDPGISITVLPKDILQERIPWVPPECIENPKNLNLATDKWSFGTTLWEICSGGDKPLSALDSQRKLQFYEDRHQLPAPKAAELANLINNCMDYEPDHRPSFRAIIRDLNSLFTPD
In words: JAK2 LanthaScreen JH2-V617F Binding Assay. To be noted: 1 hour at 25° C. The procedure, abridged: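 Binding was measured as TR-FRET displacement of 50 nM tracer from 0.26 nM biotinylated His-Avi protein, incubated one hour at 25° C; IC50 from a four-parameter fit.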

The structures appear in SMILES notation. Structures can show the parent of a compound that is named as a salt.

T1 sequence (O60674 536-812 W659A/W777A/F794H): as the sequence (O60674 536-812 V617F/W659A/W777A/F794H) above, with F82V counted along it
T2 sequence (O60674 808-1132): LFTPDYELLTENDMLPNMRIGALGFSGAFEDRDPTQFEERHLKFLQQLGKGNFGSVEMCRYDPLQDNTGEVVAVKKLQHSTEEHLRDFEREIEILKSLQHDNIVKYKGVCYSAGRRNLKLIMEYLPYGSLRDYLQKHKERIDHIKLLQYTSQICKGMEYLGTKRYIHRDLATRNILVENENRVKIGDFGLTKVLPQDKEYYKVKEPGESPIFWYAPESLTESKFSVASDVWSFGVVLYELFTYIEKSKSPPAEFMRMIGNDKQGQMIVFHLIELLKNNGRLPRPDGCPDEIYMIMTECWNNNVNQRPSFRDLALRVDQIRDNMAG

On to `COC(=O)N1CC2(N3CCC4(CC3)C(=O)N(C)c3cnc5[nH]c(-c6cnn(C)c6)c(-c6ccc7c(cnn7C)c6)c5c34)CC1C2` [Example 83, Methyl 4-(6-methyl-1-(1-methyl-1H-indazol-5-yl)-2-(1-methyl-1H-pyrazol-4-yl)-7-oxo-6,7-dihydro-3H-spiro[dipyrrolo[2,3-b:3′,2′-d]pyridine-8,4′-piperidin]-1′-yl)-2-azabicyclo[2.1.1]hexane-2-carboxylate], for which the IC50 in test [1] was not above 0.1 µM; in test [2], 1.25 to 2.5 µM; in test [3] it was 1.25 to 2.5 µM; in test [4], not above 0.1 µM.

On to `CN1C(=O)C2(CCN(C(C)(C)C3CNC3)CC2)c2c1cnc1[nH]c(-c3cnn(C)c3)c(-c3ccc4c(cnn4C)c3)c21` [Example 84, 1′-(2-(Azetidin-3-yl)propan-2-yl)-6-methyl-1-(1-methyl-1H-indazol-5-yl)-2-(1-methyl-1H-pyrazol-4-yl)-3,6-dihydro-7H-spiro[dipyrrolo[2,3-b:3′,2′-d]pyridine-8,4′-piperidin]-7-one], for which the IC50 in test [1] is not above 0.1 µM; in test [2], 0.1 to 0.5 µM; in test [3], 0.5 to 1.25 µM; in test [4], not above 0.1 µM.

As for `O=C(O)C(F)(F)F.[2H]C([2H])([2H])n1ncc2cc(-c3c(-c4ccc(CN5CCOCC5)cc4)[nH]c4ncc5c(c34)C3(CC4(CN(S(=O)(=O)CC)C4)C3)C(=O)N5C)ccc21` [Example 85, 1-(Ethylsulfonyl)-6″-methyl-1″-(1-(methyl-d3)-1H-indazol-5-yl)-2″-(4-(morpholinomethyl)phenyl)-3″,6″-dihydro-7″H-dispiro[azetidine-3,1′-cyclobutane-3′,8″-dipyrrolo[2,3-b:3′,2′-d]pyridin]-7″-one, trifluoroacetate salt], the IC50 in test [1] is not above 0.1 µM; in test [2], 1.25 to 2.5 µM; in test [3], 1.25 to 2.5 µM; in test [4], not above 0.1 µM.

On to `CCS(=O)(=O)N1CC2(C1)CC1(C2)C(=O)N(C)c2cnc3[nH]c(-c4cnn(C)c4)c(-c4ccc5c(cnn5C)c4)c3c21` [Example 86, l-(Ethylsulfonyl)-6″-methyl-1″-(1-methyl-1H-indazol-5-yl)-2″-(1-methyl-1H-pyrazol-4-yl)-3″,6″-dihydro-7″H-dispiro[azetidine-3,1′-cyclobutane-3′,8″-dipyrrolo[2,3-b:3′,2′-d]pyridin]-7″-one, trifluoroacetate salt], for which the IC50 in test [1] is not above 0.1 µM; in test [2] it was 0.5 to 1.25 µM; in test [3], 0.5 to 1.25 µM; in test [4], not above 0.1 µM.

In the case of `CCS(=O)(=O)N1CC2(C1)CC1(C2)C(=O)N(C)c2cnc3[nH]c(-c4cnn(CC5CC5)c4)c(-c4ccc5c(cnn5C)c4)c3c21` [Example 87, 2″-(1-(Cyclopropylmethyl)-1H-pyrazol-4-yl)-1-(ethylsulfonyl)-6″-methyl-1″-(1-methyl-1H-indazol-5-yl)-3″,6″-dihydro-7″H-dispiro[azetidine-3,1′-cyclobutane-3′,8″-dipyrrolo[2,3-b:3′,2′-d]pyridin]-7″-one, trifluoroacetate salt], the IC50 was not above 0.1 µM in test [1], 1.25 to 2.5 µM in test [2], 1.25 to 2.5 µM in test [3] and not above 0.1 µM in test [4].

Regarding `CCS(=O)(=O)N1CC2(C1)CC1(C2)C(=O)N(C)c2cnc3[nH]c(-c4cnn(CCOC)c4)c(-c4ccc5c(cnn5C)c4)c3c21` [Example 88, 1-(Ethylsulfonyl)-2″-(1-(2-methoxyethyl)-1H-pyrazol-4-yl)-6″-methyl-1″-(1-methyl-1H-indazol-5-yl)-3″,6″-dihydro-7″H-dispiro[azetidine-3,1′-cyclobutane-3′,8″-dipyrrolo[2,3-b:3′,2′-d]pyridin]-7″-one, trifluoroacetate salt], the IC50 in test [1] was not above 0.1 µM; in test [2] it was 1.25 to 2.5 µM; in test [3], 1.25 to 2.5 µM; in test [4], not above 0.1 µM.

On to `O=C(O)C(F)(F)F.[2H]C([2H])([2H])N1C(=O)C2(CC3(CN(S(=O)(=O)CC)C3)C2)c2c1cnc1[nH]c(-c3cnn(C(C)C)c3)c(-c3ccc4c(cnn4C)c3)c21` [Example 89, 1-(Ethylsulfonyl)-2″-(1-isopropyl-1H-pyrazol-4-yl)-6″-(methyl-d3)-1″-(1-methyl-1H-indazol-5-yl)-3″,6″-dihydro-7″H-dispiro[azetidine-3,1′-cyclobutane-3′,8″-dipyrrolo[2,3-b:3′,2′-d]pyridin]-7″-one, trifluoroacetate salt], for which the IC50 in test [1] was not above 0.1 µM; in test [2], 1.25 to 2.5 µM; in test [3], 1.25 to 2.5 µM; in test [4] it was not above 0.1 µM.

Take `CCS(=O)(=O)N1CC2(C1)CC1(C2)C(=O)N(C)c2cnc3[nH]c(-c4cnn(C5CCCC5)c4)c(-c4ccc5c(cnn5C)c4)c3c21` [Example 90, 2″-(1-Cyclopentyl-1H-pyrazol-4-yl)-1-(ethylsulfonyl)-6″-methyl-1″-(1-methyl-1H-indazol-5-yl)-3″,6″-dihydro-7″H-dispiro[azetidine-3,1′-cyclobutane-3′,8″-dipyrrolo[2,3-b:3′,2′-d]pyridin]-7″-one, trifluoroacetate salt]: the IC50 in test [1] is not above 0.1 µM; in test [2], 1.25 to 2.5 µM; in test [3] it was 1.25 to 2.5 µM; in test [4], not above 0.1 µM.

As for `CCS(=O)(=O)N1CC2(C1)CC1(C2)C(=O)N(C)c2cnc3[nH]c(-c4ccc(CN5CCC(C#N)CC5)cc4)c(-c4ccc5c(cnn5C)c4)c3c21` [Example 91, l-(4-(1-(Ethylsulfonyl)-6″-methyl-1″-(1-(methy-d3)-1H-indazol-5-yl)-7″-oxo-6″,7″-dihydro-3″H-dispiro[azetidine-3,1′-cyclobutane-3′,8″-dipyrrolo[2,3-b:3′,2′-d]pyridin]-2″-yl)benzyl)piperidine-4-carbonitrile, trifluoroacetate salt], the IC50 in test [1] is not above 0.1 µM; in test [2], 1.25 to 2.5 µM; in test [3], 1.25 to 2.5 µM; in test [4], not above 0.1 µM.

On to `O=C(O)C(F)(F)F.[2H]C([2H])([2H])N1C(=O)C2(CC3(CN(S(=O)(=O)CC)C3)C2)c2c1cnc1[nH]c(-c3ccc(CN4CCOCC4)cc3)c(-c3ccc(OC)cc3)c21` [Example 92, 1-(Ethylsulfonyl)-1″-(4-methoxyphenyl)-6″-(methyl-d3)-2″-(4-(morpholinomethyl)phenyl)-3″,6″-dihydro-7″H-dispiro[azetidine-3,1′-cyclobutane-3′,8″-dipyrrolo[2,3-b:3′,2′-d]pyridin]-7″-one, trifluoroacetate salt], for which the IC50 is not above 0.1 µM in test [1], more than 2.5 µM in test [2], more than 2.5 µM in test [3] and not above 0.1 µM in test [4].

On to `CCS(=O)(=O)N1CC2(C1)CC1(C2)C(=O)N(C)c2cnc3[nH]c(-c4cnn(CC(F)F)c4)c(-c4ccc5c(cnn5C)c4)c3c21` [Example 93, 2″-(1-(2,2-Difluoroethyl)-1H-pyrazol-4-yl)-1-(ethylsulfonyl)-6″-methyl-1″-(1-methyl-1H-indazol-5-yl)-3″,6″-dihydro-7″-dispiro[azetidine-3,1′-cyclobutane-3′,8″-dipyrrolo[2,3-b:3′,2′-d]pyridin]-7″-one, trifluoroacetate salt], for which the IC50 in test [1] is not above 0.1 µM; in test [2] it was 1.25 to 2.5 µM; in test [3] it was 1.25 to 2.5 µM; in test [4], not above 0.1 µM.

For `CCS(=O)(=O)N1CC2(C1)CC1(C2)C(=O)N(C)c2cnc3[nH]c(-c4cnn5c4CCC5)c(-c4ccc5c(cnn5C)c4)c3c21` [Example 94, 2″-(5,6-Dihydro-4H-pyrrolo[l,2-b]pyrazol-3-yl)-1-(ethylsulfonyl)-6″-methyl-1″-(1-methyl-1H-indazol-5-yl)-3″,6″-dihydro-7″-dispiro[azetidine-3,1′-cyclobutane-3′,8″-dipyrrolo[2,3-b:3′,2′-d]pyridin]-7″-one, trifluoroacetate salt], the IC50 in test [1] is not above 0.1 µM; in test [2], more than 2.5 µM; in test [3], more than 2.5 µM; in test [4], not above 0.1 µM.

For the compound `O=C(O)C(F)(F)F.[2H]C([2H])([2H])N1C(=O)C2(CC3(CN(S(=O)(=O)CC)C3)C2)c2c1cnc1[nH]c(-c3cnn(CC)c3)c(-c3ccc(OC)cc3)c21` [Example 95, 2″-(1-Ethyl-1H-pyrazol-4-yl)-1-(ethylsulfonyl)-1″-(4-methoxyphenyl)-6″-(methyl-d3)-3″,6″-dihydro-7″H-dispiro[azetidine-3,1′-cyclobutane-3′,8″-dipyrrolo[2,3-b:3′,2′-d]pyridin]-7″-one, trifluoroacetate salt], the IC50 was not above 0.1 µM in test [1], 0.5 to 1.25 µM in test [2], 0.5 to 1.25 µM in test [3] and not above 0.1 µM in test [4].
